For experiment [1], the system named is HER2-amplified breast cancer cell line SK-BR3. As to the kind of experiment: PODXL expression by RT-PCR in SK-BR3 introduced with reprogramming factor (4F). The format is cell-based, human. The following applies: 4F-introduced SK-BR3, treated with IC50 concentration of drug. The procedure: (§1) In FIG. 2, FIG. 2A is a schematic drawing describing a method of introducing reprogramming factor, MYOD1 or GFP and siRNA into MP-CCS-SY cell line. […] FIG. 2C is a schematic drawing describing introduction of a reprogramming factor into HCC827 or SK-BR3 cell line and a method of addition of each medicament.
(§2) RT-PCR was performed using the following method. Using RNeasy Plus Mini kit (Qiagen, Hilden, Germany), the total RNA was isolated. Using Go-taq qPCR Master Mix (Promega, Madison, USA), quantitative real-time PCR analysis was performed. The transcription level was standardized based on β-actin or GAPDH value.
(§3) Besides the above, an influence of the activation of oncogene signal on cell reprogramming was examined. Epithelial growth factor receptor (EGFR) mutated lung cancer cell line HCC827 and HER2-amplified breast cancer cell line SK-BR3 were used for the experiment. These cancer cell lines are sensitive to EGFR specific tyrosine kinase and HER2 tyrosine kinase inhibitor, respectively. […] Change of gene expression with or without introduction of 4F into HCC827 and SK-BR3 was examined by microarray analysis.

Experiment [2] deals with EGFR mutated lung cancer cell line HCC827. The experiment is described as follows: PODXL expression by RT-PCR in HCC827 introduced with reprogramming factor (4F). Type of experiment: cell-based, human. The following applies: 4F-introduced HCC827, treated with IC50 concentration of drug. As to the method: as §1, §2, §3
In the next experiment the test system is HCC827 cell line. The following applies: HCC827, Dox(4F)+, two days. The procedure:
as §2
(§4) Using a combination of a cancer cell sensitive to a certain kind of anticancer agent and a cancer cell not sensitive to a certain kind of anticancer agent, an influence of a drug-specific cell on the reprogramming was examined. […] Two days later, RNA was extracted from the cells, and the expression levels of NANOG and GDF3 were measured by quantitative RT-PCR (FIG. 5A).

For experiment [3], the system named is SK-BR3 cell line. The experiment is described as follows: NANOG and GDF3 expression by quantitative RT-PCR in 4F-induced SK-BR3. The format is cell-based, human. The following applies: SK-BR3, Dox(4F)+, two days. The procedure:
as §2, §4

The test system of experiment [4] is HER2-amplified breast cancer cell line SK-BR3. As to conditions: stated as known; cited from earlier work.
Experiment [5] concerns EGFR mutation lung cancer cell line HCC827. The following applies: stated as known; cited from earlier work.
Experiment [6] has as its system SK-BR3 cell line. As to the kind of experiment: Microarray analysis of gene expression change with or without 4F in SK-BR3. The format is cell-based, human. The following applies: SK-BR3 with or without 4F introduction.
From the text: as §1, §3

[7] abbreviates: Imatinib 1 or 10 μM, 5-FU 10 or 50 μM (FIG. 5B legend).

Like-named read-outs stand apart in the source and are kept apart here.

For `O=c1[nH]cc(F)c(=O)[nH]1` [5FU, 5-fluorouracil], the “expression of reprogramming marker PODXL” value in experiment [1] is “did not increase”. In addition, in experiment [2], the PODXL expression entry is reported as “did not increase”. Further, in the experiment with HCC827 cell line (setting [7]), the “expression of GDF3” value is recorded as “did not promote” and the “expression of NANOG” value is recorded as “did not promote”.

Regarding `CS(=O)(=O)CCNCc1ccc(-c2ccc3ncnc(Nc4ccc(OCc5cccc(F)c5)c(Cl)c4)c3c2)o1` [lapatinib], the “expression of GDF3” value in the experiment with SK-BR3 cell line [3] (0.05 μM), with SK-BR3 cell line [3] (0.5 μM) and in the experiment with HCC827 cell line (0.5 μM) was “promoted” in each case. Besides, the “expression of NANOG” value in the experiment on SK-BR3 cell line [3] (0.05 μM), in the experiment with SK-BR3 cell line [3] (0.5 μM) and in the experiment on HCC827 cell line (0.5 μM) was “promoted” in each case. Also, the “sensitivity of cell line to drug” value in experiment [4] and in experiment [5] was “sensitive” in each case. Also, in experiment [1], the “expression of reprogramming marker PODXL” value is given as “promoted”. Also, the “change of gene expression (many genes including PODXL and NANOG), microarray” value in the experiment on SK-BR3 cell line [6] is reported as “upregulated or downregulated”.

These data come from US11519901B2, “Method for screening for cancer therapeutic agent” (THE UNIVERSITY OF TOKYO, priority 2015, dated 2022).
